Measurements from patent US8741875B2, “Compounds as receptor modulators with therapeutic utility” (Allergan, Inc., priority 2009, dated 2014).

Each molecule was assayed on blood lymphocytes (assay: Lymphopenia Assay in Mice (blood lymphocyte depletion)). Settings: 10 mg/kg in mice (24, 48, 72 Hours), FIG. 1.
Type: in vivo, female C57BL6 mice
Method: A lymphopenia assay in mice; as previously described, was employed to measure the in vivo blood lymphocyte depletion after dosing with the test compound: [3-({4-[(5-phenylpentyl)oxy]-3-(2-thienyl)benzyl}amino)propyl]phosphonic acid Compound 6. This S1P1 modulator, [3-({4-[(5-phenylpentyl)oxy]-3-(2-thienyl)benzyl}amino)propyl]phosphonic acid Compound 6 is useful for S1P-related diseases and exemplified by the lymphopenia in vivo response.
Test drugs, were prepared in a solution containing 3% (w/v) 2-hydroxy propyl β-cyclodextrin (HPBCD) and 1% DMSO to a final concentration of 1 mg/ml, and subcutaneously injected to female C57BL6 mice (CHARLES RIVERS) weighing 20-25 g at the dose of 10 mg/Kg. Blood samples were obtained by puncturing the submandibular skin with a Goldenrod animal lancet at different time intervals such as: 24, 48, 72 (and 96 h) post drug application. Blood was collected into microvettes (SARSTEDT) containing EDTA tripotassium salt. Lymphocytes in blood samples were counted using a HEMAVET Multispecies Hematology System, HEMAVET HV950FS (Drew Scientific Inc.). (Hale, J. et al Bioorg. & Med. Chem. Lett. 14 (2004) 3351

Row | Compound | Lymphopenia
1 | O=P(O)(O)CCCNCc1ccc(OCCCCCc2ccccc2)c(-c2cccs2)c1 [Compound 6, [3-({4-[(5-phenylpentyl)oxy]-3-(2-thienyl)benzyl}amino)propyl]phosphonic acid] | induced

Same assay, conditions: mice, 10 mg/Kg subcutaneously, after 24 hours, FIG. 1

Row | Compound | lymphocyte count (number of lymphocytes)
2 | O=P(O)(O)CCCNCc1ccc(OCCCCCc2ccccc2)c(-c2cccs2)c1 [Compound 6, [3-({4-[(5-phenylpentyl)oxy]-3-(2-thienyl)benzyl}amino)propyl]phosphonic acid] | < 1 10^3/μL blood

Each molecule was assayed against T1, human S1P1 receptor (Homo sapiens, UniProt P21453) (assay: GTP γ35S binding assay for S1P1 activity). Settings: membranes, 30 min at 25° C., read-out: S1P1 EC50 (Activity potency: S1P1 receptor from GTP γ35S).
T1 construct: expressed in transfected cells; membranes used
Type: biochemical
Method: Compounds were tested for S1P1 activity using the GTP γ^35S binding assay. These compounds may be assessed for their ability to activate or block activation of the human S1P1 receptor in cells stably expressing the S1P1 receptor.
GTP γ^35S binding was measured in the medium containing (mM) HEPES 25, pH 7.4, MgCl2 10, NaCl 100, dithitothreitol 0.5, digitonin 0.003%, 0.2 nM GTP γ^35S, and 5 μg membrane protein in a volume of 150 μl. Test compounds were included in the concentration range from 0.08 to 5,000 nM unless indicated otherwise. Membranes were incubated with 100 μM 5′-adenylylimmidodiphosphate for 30 min, and subsequently with 10 μM GDP for 10 min on ice. Drug solutions and membrane were mixed, and then reactions were initiated by adding GTP γ^35S and continued for 30 min at 25° C. Reaction mixtures were filtered over Whatman GF/B filters under vacuum, and washed three times with 3 mL of ice-cold buffer (HEPES 25, pH7.4, MgCl2 10 and NaCl 100). Filters were dried and mixed with scintillant, and counted for ^35S activity using a β-counter. Agonist-induced GTP γ^35S binding was obtained by subtracting that in the absence of agonist. Binding data were analyzed using a non-linear regression method. In case of antagonist assay, the reaction mixture contained 10 nM S1P in the presence of test antagonist at concentrations ranging from 0.08 to 5000 nM.

T1 sequence (P21453 whole entry): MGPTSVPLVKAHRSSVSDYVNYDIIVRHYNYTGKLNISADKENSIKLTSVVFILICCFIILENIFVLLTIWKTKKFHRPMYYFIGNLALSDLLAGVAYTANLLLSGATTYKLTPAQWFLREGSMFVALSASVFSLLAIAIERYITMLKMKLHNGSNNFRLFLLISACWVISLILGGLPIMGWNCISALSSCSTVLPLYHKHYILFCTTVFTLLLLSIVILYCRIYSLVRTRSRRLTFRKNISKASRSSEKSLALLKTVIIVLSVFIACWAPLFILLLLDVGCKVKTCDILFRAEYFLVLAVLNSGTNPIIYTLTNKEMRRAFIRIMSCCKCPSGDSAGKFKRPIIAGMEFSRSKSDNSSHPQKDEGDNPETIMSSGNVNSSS

Row | EC50 | Compound
3 | 1.3 nM | O=P(O)(O)CCCNCc1ccc(OCCCCCc2ccccc2)c(-c2cccs2)c1 [Compound 6, [3-({4-[(5-phenylpentyl)oxy]-3-(2-thienyl)benzyl}amino)propyl]phosphonic acid]
4 | 32.8 nM | O=P(O)(O)CCCNCc1ccc(OCCCCCc2cccc(Cl)c2)c(-c2ccco2)c1 [Compound 39, (3-{[4-{[5-(3-chlorophenyl)pentyl]oxy}-3-(2-furyl)benzyl]amino}propyl)phosphonic acid]
5 | 34.9 nM | Cc1cccc(CCCCCOc2ccc(CNCCCP(=O)(O)O)cc2-c2ccco2)c1 [Compound 40, (3-{[3-(2-furyl)-4-{[5-(3-methylphenyl)pentyl]oxy}benzyl]amino}propyl)phosphonic acid]
6 | 53.6 nM | O=P(O)(O)C(F)(F)CCNCc1ccc(OCCCCCc2ccccc2)c(-c2ccc(F)o2)c1 [Compound 41, [1,1-difluoro-3-({3-(5-fluoro-2-furyl)-4-[(5-phenylpentyl)oxy]benzyl}amino)propyl]phosphonic acid]
7 | 16.4 nM | CC(NCCCP(=O)(O)O)c1ccc(OCCCCCc2ccccc2)c(-c2cccs2)c1 (stereo not shown) [Compound 42, {3-[(1-{4-[(5-phenylpentyl)oxy]-3-(2-thienyl)phenyl}ethyl)amino]propyl}phosphonic acid]
8 | 8.5 nM | O=P(O)(O)CCCNCc1ccc(OCCCCCc2ccccc2)c(-n2cccn2)c1 [Compound 43, [3-({4-[(5-phenylpentyl)oxy]-3-(1H-pyrazol-1-yl)benzyl}amino)propyl]phosphonic acid]
9 | 3.4 nM | O=P(O)(O)CCCNCc1ccc(OCCCCCc2ccccc2)c(-n2cccc2)c1 [Compound 44, [3-({4-[(5-phenylpentyl)oxy]-3-(1H-pyrrol-1-yl)benzyl}amino)propyl]phosphonic acid]
10 | 1.7 nM | [2H]C([2H])(CCCCc1ccccc1)Oc1ccc(CNCCCP(=O)(O)O)cc1-c1ccco1 [Compound 45, [3-({3-(2-furyl)-4-[(5-phenylpentyl)oxy]benzyl}amino)propyl]phosphonic acid-d_2—]
11 | 1.5 nM | O=P(O)(O)CCCNCc1ccc(NCCCCCc2ccccc2)c(-c2ccco2)c1 [Compound 46, [3-({3-(2-furyl)-4-[(5-phenylpentyl)amino]benzyl}amino)propyl]phosphonic acid]
12 | 15.6 nM | O=P(O)(O)CCCNCc1ccc(NCCCCCc2ccccc2)c(-c2ncco2)c1 [Compound 47, [3-({3-(1,3-oxazol-2-yl)-4-[(5-phenylpentyl)amino]benzyl}amino)propyl]phosphonic acid]
13 | 17.4 nM | O=P(O)(O)CCCNCc1ccc(NCCCCCc2ccccc2)c(-c2nccs2)c1 [Compound 48, [3-({4-[(5-phenylpentyl)amino]-3-(1,3-thiazol-2-yl)benzyl}amino)propyl]phosphonic acid]
14 | 1 nM | O=P(O)(O)CCCNCc1ccc(OCCCCCc2ccccc2F)c(-c2ccco2)c1 [Compound 49, (3-{[4-{[5-(2-fluorophenyl)pentyl]oxy}-3-(2-furyl)benzyl]amino}propyl)phosphonic acid]
15 | < 25 nM | O=P(O)(O)CCCNCc1ccc(OCCCCCc2ccccc2F)c(-c2ccoc2)c1 [Compound 50, (3-{[4-{[5-(2-fluorophenyl)pentyl]oxy}-3-(3-furyl)benzyl]amino}propyl)phosphonic acid]
16 | 1 nM | O=P(O)(O)CCCNCc1cc(-c2ccco2)c(OCCCCCc2ccccc2)cc1F [Compound 51, [3-({2-fluoro-5-(2-furyl)-4-[(5-phenylpentyl)oxy]benzyl}amino)propyl]phosphonic acid]
